Reference: PubChem BioAssay (NCI)
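Assay format: 96-well plates, 48-hour exposure. GI50 = concentration required for 50% inhibition of growth. TGI marks complete inhibition of growth.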

Assays:
Assay in all cases: inhibition of tumour cell growth, NCI panel, 48 h
[1] = tested on: OVCAR-4 ovarian
[2] = tested on: SK-MEL-2 melanoma
[3] = tested on: HL-60(TB) leukemia
[4] = tested on: SF-295 CNS
[5] = tested on: HS 578T breast
[6] = tested on: NCI-H226 lung
[7] = tested on: M14 melanoma
[8] = tested on: UACC-257 melanoma
[9] = tested on: CCRF-CEM leukemia
[10] = tested on: UACC-62 melanoma
[11] = tested on: OVCAR-8 ovarian
[12] = tested on: NCI-H522 lung
[13] = tested on: SW-620 colon
[14] = tested on: SN12C renal
[15] = tested on: HCT-15 colon
[16] = tested on: HT29 colon
[17] = tested on: SK-MEL-28 melanoma
[18] = tested on: COLO 205 colon
[19] = tested on: KM12 colon
[20] = tested on: HCC-2998 colon
[21] = tested on: TK-10 renal
[22] = tested on: CAKI-1 renal
[23] = tested on: OVCAR-3 ovarian
[24] = tested on: A549 NSCLC
[25] = tested on: SF-539 CNS
[26] = tested on: MDA-MB-231 breast
[27] = tested on: HOP-62 NSCLC
[28] = tested on: SK-MEL-5 melanoma
[29] = tested on: SK-OV-3 ovarian
[30] = tested on: DU-145 prostate
[31] = tested on: LOX IMVI melanoma
[32] = tested on: 786-0 renal
[33] = tested on: A498 renal
[34] = tested on: UO-31 renal
[35] = tested on: HOP-92 NSCLC
[36] = tested on: NCI-H460 lung
[37] = tested on: BT-549 breast
[38] = tested on: MOLT-4 leukemia
[39] = tested on: OVCAR-5 ovarian
[40] = tested on: RXF 393 renal
[41] = tested on: NCI/ADR-RES ovarian
[42] = tested on: EKVX NSCLC
[43] = tested on: RPMI-8226 leukemia
[44] = tested on: MCF7 breast
[45] = tested on: PC-3 prostate
[46] = tested on: SR leukemia
[47] = tested on: MALME-3M melanoma
[48] = tested on: IGROV1 ovarian
[49] = tested on: T-47D breast
[50] = tested on: ACHN renal
[51] = tested on: SF-268 CNS
[52] = tested on: HCT-116 colon
[53] = tested on: U251 CNS
[54] = tested on: MDA-MB-435
[55] = tested on: SNB-75 CNS
[56] = tested on: SNB-19 CNS
[57] = tested on: NCI-H23 lung

CCC(=C/[C@H](C)C/C=C/C(C)=C/[C@@H](C)C(=O)[C@@H](C)[C@H](O)[C@@H](C)CC)/C=C/[C@@H]1OC(=O)C=C[C@@H]1C
GI50 [1]: < 5 nM | TGI [1]: 6660 nM | GI50 [2]: < 5 nM | TGI [2]: 3030 nM | GI50 [3]: < 5 nM | TGI [3]: < 5 nM | GI50 [4]: < 5 nM | TGI [4]: 7490 nM | GI50 [5]: < 5 nM | TGI [5]: 2450 nM | GI50 [6]: < 5 nM | TGI [6]: < 5 nM | GI50 [7]: < 5 nM | TGI [7]: < 5 nM | GI50 [8]: < 5 nM | TGI [8]: 8900 nM | GI50 [9]: < 5 nM | TGI [9]: 1800 nM | GI50 [10]: < 5 nM | TGI [10]: 243 nM | GI50 [11]: < 5 nM | TGI [11]: 6160 nM | GI50 [12]: < 5 nM | TGI [12]: 81.7 nM | GI50 [13]: < 5 nM | TGI [13]: 3180 nM | GI50 [14]: < 5 nM | TGI [14]: 4320 nM | GI50 [15]: < 5 nM | TGI [15]: 409 nM | GI50 [16]: < 5 nM | TGI [16]: 5310 nM | GI50 [17]: < 5 nM | TGI [17]: 75.7 nM | GI50 [18]: < 5 nM | TGI [18]: < 5 nM | GI50 [19]: < 5 nM | TGI [19]: 5170 nM | GI50 [20]: < 5 nM | TGI [20]: < 5 nM | GI50 [21]: < 5 nM | TGI [21]: 10700 nM | GI50 [22]: < 5 nM | TGI [22]: 8530 nM | GI50 [23]: < 5 nM | TGI [23]: 6300 nM | GI50 [24]: < 5 nM | TGI [24]: 7020 nM | GI50 [25]: < 5 nM | TGI [25]: < 5 nM | GI50 [26]: < 5 nM | TGI [26]: 4640 nM | GI50 [27]: < 5 nM | TGI [27]: 874 nM | GI50 [28]: < 5 nM | TGI [28]: < 5 nM | GI50 [29]: < 5 nM | TGI [29]: 6500 nM | GI50 [30]: < 5 nM | TGI [30]: 5710 nM | GI50 [31]: < 5 nM | TGI [31]: 584 nM | GI50 [32]: < 5 nM | TGI [32]: < 5 nM | GI50 [33]: < 5 nM | TGI [33]: < 5 nM | GI50 [34]: < 5 nM | TGI [34]: 214 nM | GI50 [35]: < 5 nM | TGI [35]: < 5 nM | GI50 [36]: < 5 nM | TGI [36]: 53.3 nM | GI50 [37]: < 5 nM | TGI [37]: < 5 nM | GI50 [38]: < 5 nM | TGI [38]: < 5 nM | GI50 [39]: < 5 nM | TGI [39]: 4740 nM | GI50 [40]: < 5 nM | TGI [40]: 71.1 nM | GI50 [41]: < 5 nM | TGI [41]: 1370 nM | GI50 [42]: < 5 nM | TGI [42]: 8330 nM | GI50 [43]: < 5 nM | TGI [43]: < 5 nM | GI50 [44]: < 5 nM | TGI [44]: 158 nM | GI50 [45]: < 5 nM | TGI [45]: 5940 nM | GI50 [46]: < 5 nM | TGI [46]: 219 nM | GI50 [47]: < 5 nM | TGI [47]: 253 nM | GI50 [48]: 92.6 nM | TGI [48]: 7880 nM | GI50 [49]: < 5 nM | TGI [49]: 6180 nM | GI50 [50]: < 5 nM | TGI [50]: 6290 nM | GI50 [51]: < 5 nM | TGI [51]: 2190 nM | GI50 [52]: < 5 nM | TGI [52]: < 5 nM | GI50 [53]: < 5 nM | TGI [53]: 2060 nM | GI50 [54]: < 5 nM | TGI [54]: < 5 nM | GI50 [55]: < 5 nM | TGI [55]: 77.3 nM | GI50 [56]: < 5 nM | TGI [56]: 3500 nM | GI50 [57]: < 5 nM | TGI [57]: 4290 nM
